In US10201533B2, “Substituted quinolizine derivatives useful as HIV integrase inhibitors” (priority 2013, dated 2019):

system: HIV-1 (NL4-3 strain); assay: microbe, parasite or virus in culture; type: cell-based; conditions: 0% normal human serum (NHS); MT4-GFP cells infected with HIV-1 NL4-3; IP or IC50 from 4-parameter dose response curve; read-out: WILD TYPE CELL ASSAY Viking IP (0% NHS)

| SMILES | IC50 [nM] |
| --- | --- |
| COCCC[C@]1(C)C(=O)c2c(O)c(=O)c(C(=O)NCc3c(F)cccc3F)cn2C[C@@H]1OC [Compound 82] | 4.1 |
| COCCC[C@]1(C)C(=O)c2c(O)c(=O)c(C(=O)NCc3c(F)cccc3F)cn2C[C@@H]1OC [Compound 83] | 0.9 |
| COCCC[C@]1(C)C(=O)c2c(O)c(=O)c(C(=O)NCc3ccccc3F)cn2C[C@@H]1OC [Compound 86] | 1.3 |
| COCCC[C@]1(C)C(=O)c2c(O)c(=O)c(C(=O)NCc3ccccc3F)cn2C[C@@H]1OC [Compound 87] | 8 |
| COCCC[C@@]1(C)C(=O)c2c(O)c(=O)c(C(=O)NCc3ccccc3F)cn2C[C@@H]1OC [Compound 89] | 2.1 |
| COCCC[C@]1(C)C(=O)c2c(O)c(=O)c(C(=O)NCc3c(F)cc(F)cc3F)cn2C[C@@H]1OC [Compound 90] | 0.8 |
| COCCC[C@]1(C)C(=O)c2c(O)c(=O)c(C(=O)NCc3c(F)cc(F)cc3F)cn2C[C@@H]1OC [Compound 91] | 3.8 |
| COCCC[C@@]1(C)C(=O)c2c(O)c(=O)c(C(=O)NCc3c(F)cc(F)cc3F)cn2C[C@@H]1OC [Compound 93] | 1.2 |
| C[C@]12CCCN[C@H]1Cn1cc(C(=O)NCc3ccc(F)cc3F)c(=O)c(O)c1C2=O [Compound 122] | 3.3 |

same assay, conditions: 100% normal human serum (NHS); MT4-GFP cells infected with HIV-1 NL4-3; IP or IC50 from 4-parameter dose response curve; read-out: WILD TYPE CELL ASSAY Viking IP (100% NHS)

| SMILES | IC50 [nM] |
| --- | --- |
| COCCC[C@]1(C)C(=O)c2c(O)c(=O)c(C(=O)NCc3c(F)cccc3F)cn2C[C@@H]1OC [Compound 82] | 160 |
| COCCC[C@]1(C)C(=O)c2c(O)c(=O)c(C(=O)NCc3c(F)cccc3F)cn2C[C@@H]1OC [Compound 83] | 19 |
| COCCC[C@]1(C)C(=O)c2c(O)c(=O)c(C(=O)NCc3ccccc3F)cn2C[C@@H]1OC [Compound 86] | 18 |
| COCCC[C@]1(C)C(=O)c2c(O)c(=O)c(C(=O)NCc3ccccc3F)cn2C[C@@H]1OC [Compound 87] | 269 |
| COCCC[C@@]1(C)C(=O)c2c(O)c(=O)c(C(=O)NCc3ccccc3F)cn2C[C@@H]1OC [Compound 89] | 73 |
| COCCC[C@]1(C)C(=O)c2c(O)c(=O)c(C(=O)NCc3c(F)cc(F)cc3F)cn2C[C@@H]1OC [Compound 90] | 13 |
| COCCC[C@]1(C)C(=O)c2c(O)c(=O)c(C(=O)NCc3c(F)cc(F)cc3F)cn2C[C@@H]1OC [Compound 91] | 273 |
| COCCC[C@@]1(C)C(=O)c2c(O)c(=O)c(C(=O)NCc3c(F)cc(F)cc3F)cn2C[C@@H]1OC [Compound 93] | 52 |
| C[C@]12CCCN[C@H]1Cn1cc(C(=O)NCc3ccc(F)cc3F)c(=O)c(O)c1C2=O [Compound 122] | 35 |

same assay, conditions: Human immunodeficiency virus 1, NL43, 0% normal human serum (NHS); MT4-GFP cells infected with HIV-1 NL4-3; IP or IC50 from 4-parameter dose response curve; read-out: WILD TYPE CELL ASSAY Viking IP (0% NHS)

| SMILES | IC50 [nM] |
| --- | --- |
| COCCC[C@@]1(C)C(=O)c2c(O)c(=O)c(C(=O)NCc3c(F)cccc3F)cn2C[C@@H]1OC [Compound 84] | 1.8 |
| COCCC[C@@]1(C)C(=O)c2c(O)c(=O)c(C(=O)NCc3ccccc3F)cn2C[C@@H]1OC [Compound 88] | 2.3 |
| COCCC[C@@]1(C)C(=O)c2c(O)c(=O)c(C(=O)NCc3c(F)cc(F)cc3F)cn2C[C@@H]1OC [Compound 92] | 1.3 |
| C[C@@]12CCCC[C@]1(O)Cn1cc(C(=O)NCc3ccc(F)cc3F)c(=O)c(O)c1C2=O [Compound 94] | 1.8 |
| C[C@]12CCCC[C@@]1(O)Cn1cc(C(=O)NCc3ccc(F)cc3F)c(=O)c(O)c1C2=O [Compound 95] | 2.2 |
| C[C@@]12CCCC[C@]1(O)Cn1cc(C(=O)NCc3ccc(F)c(Cl)c3)c(=O)c(O)c1C2=O [Compound 96] | 6.2 |
| C[C@]12CCCC[C@@]1(O)Cn1cc(C(=O)NCc3ccc(F)c(Cl)c3)c(=O)c(O)c1C2=O [Compound 97] | 2.4 |
| C[C@@]12CCCCC[C@@]1(O)Cn1cc(C(=O)NCc3ccc(F)cc3F)c(=O)c(O)c1C2=O [Compound 99] | 3.7 |
| C[C@]12CCCCC[C@@]1(O)Cn1cc(C(=O)NCc3ccc(F)cc3F)c(=O)c(O)c1C2=O [Compound 101] | 2.1 |
| CC12CCCC1(O)Cn1cc(C(=O)NCc3ccc(F)cc3F)c(=O)c(O)c1C2=O (centres unmarked) [Compound 104] | 3.6 |
| COC12CCCC1(C)C(=O)c1c(O)c(=O)c(C(=O)NCc3ccc(F)cc3F)cn1C2 (centres unmarked) [Compound 105] | 3.5 |
| COC12CCCC1(C)C(=O)c1c(O)c(=O)c(C(=O)NCc3ccc(F)cc3)cn1C2 (centres unmarked) [Compound 106] | 3.3 |
| COC12CCCC1(C)C(=O)c1c(O)c(=O)c(C(=O)NCc3ccc(F)c(F)c3F)cn1C2 (centres unmarked) [Compound 107] | 5.7 |
| CC1(C)CCC[C@]2(C)C(=O)c3c(O)c(=O)c(C(=O)NCc4ccc(F)cc4F)cn3C[C@]12O [Compound 108] | 2 |
| CC1(C)CCC[C@@]2(C)C(=O)c3c(O)c(=O)c(C(=O)NCc4ccc(F)cc4F)cn3C[C@@]12O [Compound 109] | 3.2 |
| COCO[C@@]12CCCC[C@]1(C)C(=O)c1c(O)c(=O)c(C(=O)NCc3ccc(F)cc3F)cn1C2 [Compound 110] | 2.1 |
| COCO[C@]12CCCC[C@@]1(C)C(=O)c1c(O)c(=O)c(C(=O)NCc3ccc(F)cc3F)cn1C2 [Compound 111] | 3 |
| CO[C@@]12CCCC[C@]1(C)C(=O)c1c(O)c(=O)c(C(=O)NCc3ccc(F)cc3F)cn1C2 [Compound 112] | 0.65 |
| CO[C@]12CCCC[C@@]1(C)C(=O)c1c(O)c(=O)c(C(=O)NCc3ccc(F)cc3F)cn1C2 [Compound 113] | 1.3 |
| COCCO[C@@]12CCCC[C@]1(C)C(=O)c1c(O)c(=O)c(C(=O)NCc3ccc(F)cc3F)cn1C2 [Compound 114] | 1.9 |
| COCCO[C@]12CCCC[C@@]1(C)C(=O)c1c(O)c(=O)c(C(=O)NCc3ccc(F)cc3F)cn1C2 [Compound 115] | 1.4 |
| COCCCO[C@@]12CCCC[C@]1(C)C(=O)c1c(O)c(=O)c(C(=O)NCc3ccc(F)cc3F)cn1C2 [Compound 116] | 2.3 |
| COCCCO[C@]12CCCC[C@@]1(C)C(=O)c1c(O)c(=O)c(C(=O)NCc3ccc(F)cc3F)cn1C2 [Compound 117] | 2.5 |
| CO[C@@]12CCCCC[C@]1(C)C(=O)c1c(O)c(=O)c(C(=O)NCc3ccc(F)cc3F)cn1C2 [Compound 118] | 1.4 |
| CO[C@]12CCCCC[C@@]1(C)C(=O)c1c(O)c(=O)c(C(=O)NCc3ccc(F)cc3F)cn1C2 [Compound 119] | 2.1 |
| CC[C@]12CCCO[C@@H]1Cn1cc(C(=O)NCc3ccc(F)cc3F)c(=O)c(O)c1C2=O [Compound 120] | 0.8 |
| C[C@]12CCCN[C@H]1Cn1cc(C(=O)NCc3ccc(F)cc3F)c(=O)c(O)c1C2=O [Compound 121] | 2.6 |
| CN1CCC[C@]2(C)C(=O)c3c(O)c(=O)c(C(=O)NCc4ccc(F)cc4F)cn3C[C@H]12 [Compound 124] | 3.2 |

same assay, conditions: Human immunodeficiency virus 1, NL43, 100% normal human serum (NHS); MT4-GFP cells infected with HIV-1 NL4-3; IP or IC50 from 4-parameter dose response curve; read-out: WILD TYPE CELL ASSAY Viking IP (100% NHS)

| SMILES | IC50 [nM] |
| --- | --- |
| COCCC[C@@]1(C)C(=O)c2c(O)c(=O)c(C(=O)NCc3c(F)cccc3F)cn2C[C@@H]1OC [Compound 84] | 31 |
| COCCC[C@@]1(C)C(=O)c2c(O)c(=O)c(C(=O)NCc3ccccc3F)cn2C[C@@H]1OC [Compound 88] | 63 |
| COCCC[C@@]1(C)C(=O)c2c(O)c(=O)c(C(=O)NCc3c(F)cc(F)cc3F)cn2C[C@@H]1OC [Compound 92] | 59 |
| C[C@@]12CCCC[C@]1(O)Cn1cc(C(=O)NCc3ccc(F)cc3F)c(=O)c(O)c1C2=O [Compound 94] | 282 |
| C[C@]12CCCC[C@@]1(O)Cn1cc(C(=O)NCc3ccc(F)cc3F)c(=O)c(O)c1C2=O [Compound 95] | 41 |
| C[C@@]12CCCC[C@]1(O)Cn1cc(C(=O)NCc3ccc(F)c(Cl)c3)c(=O)c(O)c1C2=O [Compound 96] | > 8400 |
| C[C@]12CCCC[C@@]1(O)Cn1cc(C(=O)NCc3ccc(F)c(Cl)c3)c(=O)c(O)c1C2=O [Compound 97] | 151 |
| C[C@@]12CCCCC[C@@]1(O)Cn1cc(C(=O)NCc3ccc(F)cc3F)c(=O)c(O)c1C2=O [Compound 99] | 616 |
| C[C@]12CCCCC[C@@]1(O)Cn1cc(C(=O)NCc3ccc(F)cc3F)c(=O)c(O)c1C2=O [Compound 101] | 105 |
| CC12CCCC1(O)Cn1cc(C(=O)NCc3ccc(F)cc3F)c(=O)c(O)c1C2=O (centres unmarked) [Compound 104] | 343 |
| COC12CCCC1(C)C(=O)c1c(O)c(=O)c(C(=O)NCc3ccc(F)cc3F)cn1C2 (centres unmarked) [Compound 105] | 2290 |
| COC12CCCC1(C)C(=O)c1c(O)c(=O)c(C(=O)NCc3ccc(F)cc3)cn1C2 (centres unmarked) [Compound 106] | 3340 |
| COC12CCCC1(C)C(=O)c1c(O)c(=O)c(C(=O)NCc3ccc(F)c(F)c3F)cn1C2 (centres unmarked) [Compound 107] | 4930 |
| CC1(C)CCC[C@]2(C)C(=O)c3c(O)c(=O)c(C(=O)NCc4ccc(F)cc4F)cn3C[C@]12O [Compound 108] | 105 |
| CC1(C)CCC[C@@]2(C)C(=O)c3c(O)c(=O)c(C(=O)NCc4ccc(F)cc4F)cn3C[C@@]12O [Compound 109] | 714 |
| COCO[C@@]12CCCC[C@]1(C)C(=O)c1c(O)c(=O)c(C(=O)NCc3ccc(F)cc3F)cn1C2 [Compound 110] | 140 |
| COCO[C@]12CCCC[C@@]1(C)C(=O)c1c(O)c(=O)c(C(=O)NCc3ccc(F)cc3F)cn1C2 [Compound 111] | 858 |
| CO[C@@]12CCCC[C@]1(C)C(=O)c1c(O)c(=O)c(C(=O)NCc3ccc(F)cc3F)cn1C2 [Compound 112] | 4110 |
| CO[C@]12CCCC[C@@]1(C)C(=O)c1c(O)c(=O)c(C(=O)NCc3ccc(F)cc3F)cn1C2 [Compound 113] | > 8000 |
| COCCO[C@@]12CCCC[C@]1(C)C(=O)c1c(O)c(=O)c(C(=O)NCc3ccc(F)cc3F)cn1C2 [Compound 114] | 137 |
| COCCO[C@]12CCCC[C@@]1(C)C(=O)c1c(O)c(=O)c(C(=O)NCc3ccc(F)cc3F)cn1C2 [Compound 115] | 225 |
| COCCCO[C@@]12CCCC[C@]1(C)C(=O)c1c(O)c(=O)c(C(=O)NCc3ccc(F)cc3F)cn1C2 [Compound 116] | 256 |
| COCCCO[C@]12CCCC[C@@]1(C)C(=O)c1c(O)c(=O)c(C(=O)NCc3ccc(F)cc3F)cn1C2 [Compound 117] | 1440 |
| CO[C@@]12CCCCC[C@]1(C)C(=O)c1c(O)c(=O)c(C(=O)NCc3ccc(F)cc3F)cn1C2 [Compound 118] | 873 |
| CO[C@]12CCCCC[C@@]1(C)C(=O)c1c(O)c(=O)c(C(=O)NCc3ccc(F)cc3F)cn1C2 [Compound 119] | 2060 |
| CC[C@]12CCCO[C@@H]1Cn1cc(C(=O)NCc3ccc(F)cc3F)c(=O)c(O)c1C2=O [Compound 120] | 116 |
| C[C@]12CCCN[C@H]1Cn1cc(C(=O)NCc3ccc(F)cc3F)c(=O)c(O)c1C2=O [Compound 121] | 62 |
| CN1CCC[C@]2(C)C(=O)c3c(O)c(=O)c(C(=O)NCc4ccc(F)cc4F)cn3C[C@H]12 [Compound 124] | 53 |
